Assay results published in patent US12448347B2, “Polymorphic forms of (R)-oxybutynin hydrochloride” (APNIMED, INC. (DELAWARE), priority 2020, dated 2025).

Legend:
Assay type in all cases: physicochemical
[1] = Hygroscopicity of the isolated solids (observation); conditions: HCl
[2] = Solid form stability / interconversion on drying, storage or slurrying (XRPD); conditions: for XRPD pattern after prolonged slurrying: slurry in MIBK and in heptanes separately, RT (2 weeks)
[3] = DVS analysis (moisture sorption/desorption)
[4] = Humidity stress in open containers with XRPD analysis; conditions: for XRPD form after humidity exposure / appearance of solids after humidity exposure: 24 hours, open container
Experimental: Samples of R-oxybutynin HCl Form B were exposed to 75% RH and 85% RH for 24 hours, in open containers.

SMILES	hygroscopicity of isolated solids [1]	crystalline form obtained after drying ([2]; dried under vacuum at RT for 24 hours)	XRPD pattern after prolonged slurrying [2]	crystalline form obtained upon storage ([2]; storage at ambient conditions)	crystalline form obtained after high temperature drying (XRPD) ([2]; vacuum drying at 50° C. (24 h, 2 days in Table 2), HCl)	hygroscopicity by DVS ([3]; DVS analysis)	physical form of post-DVS sample (XRPD) ([3]; XRPD after DVS)	weight gain (DVS) ([3]; between 75% and 95% RH) [%]	weight change upon desorption (DVS) ([3]; desorption from 95% to 5% RH)	weight gain (DVS) ([3]; from 5% RH to 95% RH) [%]	XRPD form after humidity exposure ([4]; 75% RH)	appearance of solids after humidity exposure ([4]; 75% RH)	XRPD form after humidity exposure ([4]; 85% RH)	appearance of solids after humidity exposure ([4]; 85% RH)	outcome of humidity stress ([4]; 93% RH)
CCN(CC)CC#CCOC(=O)[C@](O)(c1ccccc1)C1CCCCC1.Cl [Form A, (R)-oxybutynin HCl]	hygroscopic	Form B	Form C diffraction patterns were observed	Form B	Form C was isolated	–	–	–	–	–	–	–	–	–	–
CCN(CC)CC#CCOC(=O)[C@](O)(c1ccccc1)C1CCCCC1.Cl [Form B, (R)-oxybutynin HCl]	–	–	Form C diffraction patterns were observed	–	–	hygroscopic	Form B remained	23	All the weight gained was lost	26.6	consistent with Form B	remained free flowing	composed of Form B	not free flowing	deliquesced
CCN(CC)CC#CCOC(=O)[C@](O)(c1ccccc1)C1CCCCC1.Cl [Form C, (R)-oxybutynin HCl]	non-hygroscopic	–	–	–	–	–	–	–	–	–	–	–	–	–	–
